7 compounds from patent publication US20240246913A1, “2-CARBOXYL-INDOLE INHIBITORS OF METALLO-BETA-LACTAMASES” (Oxford University Innovation Limited, priority 2021, published 2024) can be followed below.

Each structure is given as a SMILES string.

Data set [1] is described as follows: Plasma protein binding, equilibrium dialysis, human plasma. It is filed as in vitro ADME. As to conditions: pH 7.4, equilibrium dialysis (RED) 4 hours at 37° C., read-out: Plasma protein binding, fu, Human. The essentials:
(§1)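 Compound at 10 μM in plasma dialysed against 67 mM phosphate buffer pH 7.4 for 4 h at 37° C. in RED device; unbound fraction from buffer and plasma levels by LC-MS/MS. Plasma stability checked in parallel over 4 h at 37° C. versus frozen control.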
A general note: In equilibrium dialysis free small molecules cross a membrane that holds back macromolecules.

Another data set relates to Escherichia coli NDM-1. Nature of the data set: Antibiotic susceptibility testing (MIC), EC NDM-1. Particulars: agar or broth dilution (CLSI/EUCAST). It is filed as cell-based. As for the experimental part:
(§2) Antibiotic susceptibility testing was performed using the agar or broth dilution method, in line with the Clinical and Laboratory Standards Institute (CLSI) and European Committee on Antimicrobial Susceptibility Testing (EUCAST) requirements.
On the technique in general: In broth dilution the organism is exposed to a series of concentrations in liquid medium.

A further data set concerns Escherichia coli NDM-7. As to the kind of experiment: Antibiotic susceptibility testing (MIC), EC NDM-7. It is filed as cell-based. As to conditions: agar or broth dilution (CLSI/EUCAST). As for the experimental part: as §2
Another data set concerns the target VIM-2 (Escherichia coli, UniProt Q5U7L7). As to the kind of experiment: MBL inhibition, FC-5 fluorescence assay, VIM-2. As to conditions: FC-5 cephalosporin substrate, ranges of obtained pIC50, read-out: pIC50 VIM-2 (converted). It is filed as biochemical. The essentials: (§3)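 Enzyme activity was followed as the initial rate of fluorescence increase (λex 380, λem 460 nm) as FC-5 was cleaved and released its fluorophore. Values come from variable-slope fits of normalized response against log inhibitor concentration.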

Data set [2] is described as follows: Metabolic stability in human hepatocytes. The data set is classed as in vitro ADME. Particulars: cryopreserved human hepatocytes, 1 μM compound, 37° C., up to 90 min, read-out: Metabolic stability in hepatocytes, in vitro t1/2, Human. On the procedure: (§4) Metabolic stability assays were performed in cryopreserved human and mouse hepatocytes. The hepatocytes were thawed and added to “Thawing media”, and centrifuged to pellet the hepatocytes. The cell pellet was taken up in Williams medium E (Invitrogen A1217601), the number of cells was calculated and adjusted to 1.0×10^6 cells/mi. The incubation was carried out on a heater-shaker at […], in a 24-well Picoplate (round bottom, PerkinElmer), using an incubation volume of […]. Thus, to obtain a final compound concentration of 1 μM, 0.7 μl of the 1 mM compound stock solution was pipetted to the wells of the plate. Reaction was initiated by adding 700 μl of cell suspension. Samples were incubated at 37° C. for […] and a zero sample was taken, i.e. 100 μl sample was removed to a 96-well plate and the reaction was quenched by adding 100 μl of 100% MeCN containing 50 nM Warfarin as an internal control. Consecutive samples were taken at time-points 5 min, 15 min, 30 min, 60 min, and 90 min. After finishing the experiment, samples were centrifuged at 3000 rpm for 15 min and before analysis by LC-MS/MS (Waters Corp, Milford, MA, USA).

The nature of data set [3]: Plasma protein binding, equilibrium dialysis, mouse plasma. Particulars: pH 7.4, equilibrium dialysis (RED) 4 hours at 37° C., read-out: Plasma protein binding, fu, Mouse. The data set is classed as in vitro ADME. The essentials:
as §1

The subject of data set [4] is Acinetobacter baumannii NDM-1. As to the kind of experiment: Antibiotic susceptibility testing (MIC), AB NDM-1. The data set is classed as cell-based. Particulars: agar or broth dilution (CLSI/EUCAST). On the procedure: as §2
Another data set has as its target NDM-1 (Klebsiella pneumoniae, UniProt C7C422). As to the kind of experiment: MBL inhibition, FC-5 fluorescence assay, NDM-1. The data set is classed as biochemical. As to conditions: FC-5 cephalosporin substrate, fluorescence; ranges of obtained pIC50; read-out: pIC50 NDM-1 (converted). A digest of the protocol: as §3
The target in the next data set is VIM-1 (Pseudomonas aeruginosa, UniProt A0A0F7KYQ8). Nature of the data set: MBL inhibition, FC-5 fluorescence assay, VIM-1. The data set is classed as biochemical. Particulars: FC-5 cephalosporin substrate, ranges of obtained pIC50, read-out: pIC50 VIM-1 (converted). A digest of the protocol:
as §3

For a further data set, the target named is IMP-1 (Serratia marcescens, UniProt P52699). As to the kind of experiment: MBL inhibition, FC-5 fluorescence assay, IMP-1. The data set is classed as biochemical. Particulars: FC-5 cephalosporin substrate, fluorescence; ranges of obtained pIC50; read-out: pIC50 IMP-1 (converted). A digest of the protocol: as §3
A short description of data set [5]: Metabolic stability in mouse hepatocytes. It is filed as in vitro ADME. As to conditions: cryopreserved mouse hepatocytes, 1 μM compound, 37° C., up to 90 min, read-out: Metabolic stability in hepatocytes, in vitro t1/2, Mouse. On the procedure: as §4

Chain of NDM-1 (C7C422 29-270, looked up, species assumed): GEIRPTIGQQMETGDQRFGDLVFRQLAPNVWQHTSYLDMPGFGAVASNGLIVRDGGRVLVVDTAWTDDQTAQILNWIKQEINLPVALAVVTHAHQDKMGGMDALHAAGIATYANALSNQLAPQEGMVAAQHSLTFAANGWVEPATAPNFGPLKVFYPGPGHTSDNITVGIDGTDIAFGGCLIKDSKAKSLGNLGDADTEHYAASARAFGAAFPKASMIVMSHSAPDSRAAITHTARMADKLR
Chain of IMP-1 (P52699 19-246, looked up, species assumed): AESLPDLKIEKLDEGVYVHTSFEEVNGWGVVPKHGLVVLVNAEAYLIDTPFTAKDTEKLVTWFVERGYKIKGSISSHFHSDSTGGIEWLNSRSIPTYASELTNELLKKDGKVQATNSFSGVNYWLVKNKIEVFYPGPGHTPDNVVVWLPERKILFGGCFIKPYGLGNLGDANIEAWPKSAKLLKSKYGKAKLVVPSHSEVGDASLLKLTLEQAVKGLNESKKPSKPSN

On to `C[C@@H](c1cccc2c(-c3ccc(CS(C)(=O)=O)c(F)c3)c(C(=O)O)[nH]c12)n1cc(CN2CC(N)C2)oc1=O` [IC-67, (S)-7-(1-(5-((3-aminoazetidin-1-yl)methyl)-2-oxooxazol-3(2H)-yl)ethyl)-3-(3-fluoro-4-((methylsulfonyl)methyl)phenyl)-1H-indole-2-carboxylic acid], for which the fraction unbound at 4 h, 10 μM was 0.05 to 0.25 in [1] and 0.005 to 0.05 in data set [3]. Moreover, the “MIC values EC NDM-1” value with Escherichia coli NDM-1 was “A (A = MIC values ≤ 1)”. Moreover, the “MIC values EC NDM-7” value in the data set on Escherichia coli NDM-7 is “A (A = MIC values ≤ 1)”. Besides, the IC50 was 0.1 to 1 nM at VIM-2, less than 0.1 nM at NDM-1, 1 to 10 nM on VIM-1 and greater than 10 nM on IMP-1. Further, the half-life at 1 μM in data set [2] and in [5] was greater than 6.67 h each time. Moreover, the “MIC values AB NDM-1” value in [4] is on record as “B (B MIC values 2 ÷ 8)”.
Turning to `C[C@@H](c1cccc2c(-c3ccc(CS(C)(=O)=O)c(F)c3)c(C(=O)O)[nH]c12)n1cc(CCC2(N)CC2)oc1=O` [IC-69, (S)-7-(1-(5-(2-(1-Aminocyclopropyl)ethyl)-2-oxooxazol-3(2H)-yl)ethyl)-3-(3-fluoro-4-((methylsulfonyl)methyl)phenyl)-1H-indole-2-carboxylic acid], the fraction unbound at 4 h, 10 μM in [1] was 0.05 to 0.25; in data set [3], 0.005 to 0.05. The “MIC values EC NDM-1” value in the data set with Escherichia coli NDM-1 is “A (A = MIC values ≤ 1)”. The “MIC values EC NDM-7” value in the data set on Escherichia coli NDM-7 is “A (A = MIC values ≤ 1)”. In addition, the IC50 at VIM-2 is 0.1 to 1 nM; on NDM-1, less than 0.1 nM; at VIM-1 it was 0.1 to 1 nM; at IMP-1, greater than 10 nM. Further, the half-life at 1 μM in data set [2] is greater than 6.67 h; in data set [5] it was less than 2.5 h. Further, the “MIC values AB NDM-1” value in [4] was “B (B MIC values 2 ÷ 8)”.
Turning to `C[C@@H](c1cccc2c(-c3ccc(CS(C)(=O)=O)c(F)c3)c(C(=O)O)[nH]c12)n1cc(CCCN)oc1=O` [IC-70, (S)-7-(1-(5-(3-aminopropyl)-2-oxooxazol-3(2H)-yl)ethyl)-3-(3-fluoro-4-((methylsulfonyl)methyl)phenyl)-1H-indole-2-carboxylic acid], the fraction unbound at 4 h, 10 μM in data set [1] lay within 0.05 to 0.25; in [3], 0.005 to 0.05. Also, the “MIC values EC NDM-1” value in the data set with Escherichia coli NDM-1 is given as “A (A = MIC values ≤ 1)”. For the same compound, the “MIC values EC NDM-7” value against Escherichia coli NDM-7 is reported as “A (A = MIC values ≤ 1)”. Also, the IC50 on VIM-2 was 0.1 to 1 nM; at NDM-1 it was less than 0.1 nM; on VIM-1, 0.1 to 1 nM; on IMP-1, greater than 10 nM. Further, the half-life at 1 μM in [2] was greater than 6.67 h; in [5] it was 2.5 to 6.67 h. Further, the “MIC values AB NDM-1” value in data set [4] was “A (A = MIC values ≤ 1)”.
Regarding `C[C@@H](c1cccc2c(-c3ccc(CS(C)(=O)=O)c(F)c3)c(C(=O)O)[nH]c12)N1CC2(CCC(N)CC2)OC1=O` (stereo partly drawn) [IC-71, (S)-7-(1-(8-amino-2-oxo-1-oxa-3-azaspiro[4.5]decan-3-yl)ethyl)-3-(3-fluoro-4-((methylsulfonyl)methyl)phenyl)-1H-indole-2-carboxylic acid], the fraction unbound at 4 h, 10 μM in [1] and in data set [3] was greater than 0.25 in each case. Further, the “MIC values EC NDM-1” value against Escherichia coli NDM-1 is listed as “B (B MIC values 2 ÷ 8)”. In the data set with Escherichia coli NDM-7, the “MIC values EC NDM-7” value is listed as “A (A = MIC values ≤ 1)”. For the same compound, the IC50 was 1 to 10 nM on VIM-2, 1 to 10 nM on NDM-1, greater than 10 nM on VIM-1 and greater than 10 nM at IMP-1. Besides, the figures for the half-life at 1 μM in data set [2] and in data set [5] were greater than 6.67 h and 2.5 to 6.67 h, respectively. The “MIC values AB NDM-1” value in data set [4] is on record as “C (C = MIC values > 8)”.
Take `CC(c1cccc2c(-c3ccc(CS(C)(=O)=O)c(F)c3)c(C(=O)O)[nH]c12)n1cc(CCC2(N)CC2)oc1=O` (centres unmarked) [IC-74, 7-(1-(5-(2-(1-aminocyclopropyl)ethyl)-2-oxooxazol-3(2H)-yl)ethyl)-3-(3-fluoro-4-((methylsulfonyl)methyl)phenyl)-1H-indole-2-carboxylic acid]: the fraction unbound at 4 h, 10 μM in [1] and in [3] was 0.05 to 0.25 throughout. Moreover, in the data set with Escherichia coli NDM-1, the “MIC values EC NDM-1” value is “A (A = MIC values ≤ 1)”. Besides, the “MIC values EC NDM-7” value in the data set on Escherichia coli NDM-7 is reported as “A (A = MIC values ≤ 1)”. The IC50 at VIM-2 was 0.1 to 1 nM; on NDM-1 it was less than 0.1 nM; at VIM-1 it was 0.1 to 1 nM; on IMP-1 it was greater than 10 nM. The half-life at 1 μM in data set [2] is greater than 6.67 h; in data set [5], less than 2.5 h. Also, the “MIC values AB NDM-1” value in data set [4] is “B (B MIC values 2 ÷ 8)”.
With `CC(c1cccc2c(-c3ccc(CS(C)(=O)=O)c(F)c3)c(C(=O)O)[nH]c12)n1cc(CN)oc1=O` (centres unmarked) [IC-79, 7-(1-(5-(Aminomethyl)-2-oxooxazol-3(2H)-yl)ethyl)-3-(3-fluoro-4-((methylsulfonyl)methyl)phenyl)-1H-indole-2-carboxylic acid], the fraction unbound at 4 h, 10 μM is greater than 0.25 in [1] and 0.05 to 0.25 in data set [3]. Further, the “MIC values EC NDM-1” value in the data set with Escherichia coli NDM-1 was “A (A = MIC values ≤ 1)”. The “MIC values EC NDM-7” value against Escherichia coli NDM-7 is recorded as “A (A = MIC values ≤ 1)”. Moreover, the IC50 was 1 to 10 nM on VIM-2, 0.1 to 1 nM at NDM-1, 1 to 10 nM on VIM-1 and greater than 10 nM at IMP-1. The half-life at 1 μM in data set [2] is greater than 6.67 h; in data set [5], less than 2.5 h. Further, the “MIC values AB NDM-1” value in [4] is reported as “A (A = MIC values ≤ 1)”.
On to `CC(c1cccc2c(-c3ccc(CS(C)(=O)=O)c(F)c3)c(C(=O)O)[nH]c12)n1cc(CNC(=O)CN)oc1=O` (centres unmarked) [IC-80, 7-(1-(5-((2-Aminoacetamido)methyl)-2-oxooxazol-3(2H)-yl)ethyl)-3-(3-fluoro-4-((methylsulfonyl)methyl)phenyl)-1H-indole-2-carboxylic acid], for which the fraction unbound at 4 h, 10 μM was greater than 0.25 in data set [1] and 0.05 to 0.25 in data set [3]. Besides, in the data set on Escherichia coli NDM-1, the “MIC values EC NDM-1” value is on record as “A (A = MIC values ≤ 1)”. The “MIC values EC NDM-7” value against Escherichia coli NDM-7 is “A (A = MIC values ≤ 1)”. Further, the IC50 was 1 to 10 nM at VIM-2, 0.1 to 1 nM on NDM-1, 1 to 10 nM on VIM-1 and greater than 10 nM on IMP-1. Further, the values for the half-life at 1 μM in data set [2] and in [5] were greater than 6.67 h and less than 2.5 h, respectively. For the same compound, in data set [4], the “MIC values AB NDM-1” value is listed as “B (B MIC values 2 ÷ 8)”.
